This is an account of results in US20070054841A1, “Method of treatment of systemic injury secondary to burns” (The University of Queensland, priority 2003, published 2007).

Structures are written as SMILES. “Also recorded” adds a separate entry of the source.

The test system of series [1] is rats with full thickness skin burn. Briefly: Rat thermal skin burn (30% of skin area): Evans Blue leakage and macroscopic appearance of lung. It is filed as in vivo, Female Wistar rats. On the procedure:
Female Wistar rats of body weight 250-300 grams were used in this study. The rats were divided into three groups: PMX53 treatment involved a subcutaneous injection of PMX53 in distilled water at a dose of 10 mg/kg 30 minutes before the burn. With the rats under deep anaesthesia, a closely-clipped area of skin on the back equivalent to 30% of total skin area was exposed to water at a temperature of 75° C. for 30 seconds. […] To prevent rapid death from the burn, rats were immediately treated with an intraperitoneal infusion of 8-10 ml normal saline. At the same time Evans Blue (EB) at a concentration of 20 mg/kg was injected via the femoral vein. The rats were then kept on a heating pad to maintain normal body temperature, and monitored for 4 hours. Anaesthetic was topped up as required. At the end of the experiment, 1-2 ml of blood was taken and the serum/plasma stored at −20° C., for subsequent assay of serum TNF-α levels. The leakage of EB/albumin from the blood vessels into the subcutaneous tissue was estimated by examining photographs of skin samples.

The test system is the same in series [2]. Briefly: Rat thermal skin burn (30%): bronchoalveolar lavage cell number and lung myeloperoxidase. In kind it is in vivo, Female Wistar rats. Conditions: 10 mg/kg SC pretreatment, 4 hours after burn injury, versus untreated burned animals. On the procedure:
A separate series of experiments was performed in the same way to determine myeloperoxidase (MPO) levels in the lung. In this experiment the groups were as follows: Immediately after the 4 hr monitoring period following the burn the lungs were flushed with 10 ml of saline via the pulmonary artery. Bronchoalveolar lavage (BAL) fluid was collected by an irrigation of 1 ml of saline at 37° C. into the lung once through the trachea and the total number of cells present in the lavage fluid was determined. Approximately 50% of the left lung was weighed, then homogenized in 1 ml solution of 0.05% sodium azide in 0.1M PBS (pH 6.4), and then sonicated and centrifuged. The MPO levels in the supernatants of lungs were determined using a tissue MPO assay, and the results were calculated as absorbance/tissue weight (g). Samples of affected skin, lung, liver and kidney were collected for histopathology.

In series [3] the test system is rats with second degree burns. It is filed as in vivo, Female Wistar rats. Conditions: topical 400 μg/spot immediately after burn; 6 hours after burn. On the procedure:
The inhibitory effect of topically applied PMX53 on neutrophil infiltration following a burn was examined after a 6 hour period. In order to verify any effect of PMX53 on the immune system, immunoglobulin […] (IgG) levels were examined. IgM levels can be examined using similar methods. Female Wistar rats of body weight about 250 grams were used in this study. A total of nine rats were used in the experiments, divided into 3 groups of 3 animals each: Both sides of the anaesthetized rat body was shaved. […] Skin samples were collected for histopathology. The change in circulating IgG levels following the administration of PMX53 are illustrated in FIG. 7. IgG levels in plasma were measured using an ELISA assay. IgM levels may also may be determined using conventional ELISA techniques. There was no suppression of IgG over the 6 hr period after burns to 15% of the rat skin surface area (n=3). […] The 6 hr period may be too short for the systemic reaction to the burns to be detectable.

A short description of series [4]: Interaction with silver coated Acticoat dressing: silver ion leaching and surface by scanning electron microscopy. In kind it is physicochemical. On the procedure: (§1) Uniformly sized segments of the Acticoat dressing (10 mm diameter) were incubated in 7 ml PMX53 solution (1.0 mM in sterile water) or sterile water alone at 37° C. for periods of up to 7 days. The segments were then removed and examined using scanning electron microscopy to determine if the silver coating was affected.
A quantitative assessment of the effect of PMX53 on silver ion leaching was performed by determining the concentration of silver ions in each solution after the incubation described above for 1, 3, 5 and 7 days. Silver ion determination was performed using a Spectroflame model P ICPAES instrument.

The nature of series [5]: PMX53 concentration remaining after incubation with Acticoat dressing (HPLC). In kind it is physicochemical. To be noted: throughout the experiment (up to 7 days, 37° C.). On the procedure:
as §1
An analysis of the concentration of PMX53 remaining in the incubation solutions was performed by high performance liquid chromatography to ascertain if the concentration of PMX53 remained constant throughout the incubation period. PMX53 solution was incubated at 37° C. without a dressing to act as a control.

For series [6], the system named is T-cell dependent antigen responses. To be noted: rat, in vivo, po, 100 mg/kg/day.
A further series relates to granulocytes. To be noted: cynomolgus monkey, in vivo, po, 100 mg/kg/day.
For series [7] the following is noted: in vivo.

On to `CC(=O)N[C@@H](Cc1ccccc1)C(=O)N[C@H]1CCCNC(=O)[C@H](CCCNC(=N)N)NC(=O)[C@H](Cc2c[nH]c3ccccc23)NC(=O)[C@@H](CC2CCCCC2)NC(=O)[C@@H]2CCCN2C1=O` [PMX53, AcPhe[Orn-Pro-D-Cyclohexylalanine-Trp-Arg]], for which the “degree of EB infiltration in the subcutaneous tissues” value in series [1] (10 mg/kg SC 30 minutes before burn, 4 hours after burning, drug-treated versus untreated burned rats) was “no appreciable difference”. Besides, the “leakage of Evans Blue (plasma) into burnt skin, blue staining and thickening” value in series [1] (10 mg/kg SC 30 minutes before burn, compared to burn-only group) was “less blue staining and less thickening; also recorded: markedly less plasma leakage into the skin”. Moreover, the “macroscopic appearance of the lung (EB staining, consolidation)” value in series [1] (10 mg/kg SC pretreatment, 4 hours after burn) was “colour and texture similar to those of the normal lungs; also recorded: appear normal”. The “total number of cells in bronchoalveolar lavage fluid” value in series [2] is listed as “cell numbers approaching those found in the sham-operated, unburned animals”; in series [2] (listed as PMX35) it was “dramatically less”. In addition, the “neutrophil recruitment in burned skin (histology)” value in series [3] was “less neutrophil recruitment”. Also, the “structural damage of burned skin (histology)” value in series [3] is “same structural damage as burned skin”. Also, the “changes at the surface of Acticoat dressing segments (scanning electron microscopy)” value in series [4] (7 days incubation with PMX53, magnification of 2000) was “no apparent changes”. Moreover, the “factor of increase in leaching of silver ions from Acticoat dressing” value in series [4] (PMX53 1 mM, after 1 day of incubation at 37° C.) is 2.5. For the same compound, the “concentration of PMX53 incubated with Acticoat dressing compared to control PMX53 solution” value in series [5] is on record as “did not change”. In addition, in series [6], the “T-cell dependent antigen responses” value was “did not attenuate or increase”. The “phagocytosis or oxidative burst functions of granulocytes” value in the series with granulocytes was “did not detectably impair”. Further, the “penetration through normal rat skin” value in series [7] amounted to 0.16 %/cm^2. In addition, in series [7] (rat), the “systemic level of the drug after topical administration compared with other routes” value is given as “lower systemic level”.
